Laboratory results: ChEMBL document CHEMBL5260833, “An overview of quinazolines: Pharmacological significance and recent developments” (Eur J Med Chem, 2018)

How the values were obtained:
Assay type in all cases: functional
Rattus norvegicus [1] = assay: Antiinflammatory activity in carrageenan induced rat at assessed as reduction in paw edema 50 mg/kg, po relative to control; set-up: scale not given: the % may be the effect or the level left
Tobacco mosaic virus = assay: Antiviral activity against TMV at 500 microg/ml; conditions: dose 500 µg/ml
Rattus norvegicus [2] = assay: Anticonvulsant activity in ip dosed albino rat measured after 1 hrs

Compound | Activity (Rattus norvegicus [1]) | Activity (Tobacco mosaic virus) | Activity (Rattus norvegicus [2])
O=C(/C=C/c1ccccc1)NNCc1nc2ccc(Br)cc2c(=O)n1-c1ccccc1 | 10.28% | – | –
COc1ccccc1-n1c(CBr)nc2ccccc2c1=O | 10.28% | – | –
O=c1c2ccccc2nc(CBr)n1-c1ccccc1Cl | 10.28% | – | –
COc1cc(/C=C/C(=O)NNCc2nc3ccccc3c(=O)n2-c2ccccc2OC)ccc1O | 10.28% | – | –
COc1ccc(/C=C/n2c(C)nc3ccc(Br)cc3c2=O)cc1OC | – | 54% | –
O=c1c2ccccc2nc(-c2ccccc2)n1/C=C/c1cc(Cl)cc(Cl)c1 | – | 54% | –
O=c1c2ccccc2nc(-c2ccncc2)n1/C=C/c1cccc(Cl)c1Cl | – | 54% | –
Cc1nc2ccc(Br)cc2c(=O)n1NC1=NOC(c2ccccc2)C1 (stereo not given) | – | – | 50%
COc1cc(/C=C/C(=O)NN2C(=O)CC2c2nc3ccccc3c(=O)n2-c2ccccc2OC)ccc1O (stereo not given) | 10.28% | – | –
COc1ccc(/C=C/C(=O)Nn2c(C)nc3ccc(Br)cc3c2=O)cc1 | – | – | 50%
COc1ccc(C2CC(Nn3c(C)nc4ccccc4c3=O)=NO2)cc1 (stereo not given) | – | – | 50%
Cc1nc2ccccc2c(=O)n1NC1=NOC(c2ccc(N(C)C)cc2)C1 (stereo not given) | – | – | 50%
CC(=O)N1N=C(Nn2c(C)nc3ccc(Br)cc3c2=O)CC1c1ccc(N(C)C)cc1 (stereo not given) | – | – | 50%
Cc1nc2ccc(Br)cc2c(=O)n1/C=C/c1c(Cl)cccc1Cl | – | 54% | –
CC(=O)N1N=C(Nn2c(C)nc3ccccc3c2=O)CC1c1ccc(O)cc1 (stereo not given) | – | – | 50%
COc1cc(/C=C/C(=O)NN2C(=O)CC2c2nc3ccc(Br)cc3c(=O)n2-c2ccccc2)ccc1O (stereo not given) | 10.28% | – | –
CC(=O)NNCc1nc2ccc(Br)cc2c(=O)n1-c1ccccc1 | 10.28% | – | –
NNCc1nc2ccccc2c(=O)n1-c1ccccc1Cl | 10.28% | – | –
Cc1nc2ccc(Br)cc2c(=O)n1/C=C/c1cccc(F)c1 | – | 54% | –
CC(=O)N1N=C(Nn2c(C)nc3ccc(Br)cc3c2=O)CC1c1ccccc1 (stereo not given) | – | – | 50%
Cc1nc2ccc(Br)cc2c(=O)n1/C=C/c1cc(O)cc(Cl)c1 | – | 54% | –
COc1cccc(/C=C/n2c(C)nc3ccc(Br)cc3c2=O)c1OC | – | 54% | –
Cc1nc2ccc(Br)cc2c(=O)n1/C=C/c1ccc(Cl)c([N+](=O)[O-])c1 | – | 54% | –
NNCc1nc2ccc(Br)cc2c(=O)n1-c1ccccc1 | 10.28% | – | –
Cc1nc2ccc(Br)cc2c(=O)n1NC(=O)/C=C/c1ccccc1 | – | – | 50%

Compound | Activity (Rattus norvegicus [1]) | Activity (Tobacco mosaic virus) | Activity (Rattus norvegicus [2])
CC(C)c1ccc(/C=C/C(=O)NNCc2nc3ccc(Br)cc3c(=O)n2-c2ccccc2)cc1 | 10.28% | – | –
O=c1c2ccccc2nc(-c2ccncc2)n1/C=C/c1ccccc1 | – | 54% | –
O=C(/C=C/c1ccccc1)NN1C(=O)CC1c1nc2ccc(Br)cc2c(=O)n1-c1ccccc1 (stereo not given) | 10.28% | – | –
COc1cc(/C=C/C(=O)NNCc2nc3ccc(Br)cc3c(=O)n2-c2cccc(Cl)c2)ccc1O | 10.28% | – | –
COc1ccc(/C=C/C(=O)NN2C(=O)CC2c2nc3ccc(Br)cc3c(=O)n2-c2ccccc2)cc1 (stereo not given) | 10.28% | – | –
Cc1nc2ccc(Br)cc2c(=O)n1NC(=O)/C=C/c1ccc(N(C)C)cc1 | – | – | 50%
COc1cc(C2CC(Nn3c(C)nc4ccccc4c3=O)=NN2C(C)=O)ccc1O (stereo not given) | – | – | 50%
O=c1c2ccccc2nc(-c2ccccc2)n1/C=C/c1ccc(Cl)c([N+](=O)[O-])c1 | – | 54% | –
COc1cc(/C=C/C(=O)Nn2c(C)nc3ccccc3c2=O)ccc1O | – | – | 50%
CC(=O)Nn1c(C)nc2ccc(Br)cc2c1=O | – | – | 50%
O=c1c2cc(Br)ccc2nc(CBr)n1-c1ccccc1 | 10.28% | – | –
Cc1nc2ccc(Br)cc2c(=O)n1/C=C/c1ccccc1O | – | 54% | –
COc1ccccc1-n1c(CNNC(C)=O)nc2ccccc2c1=O | 10.28% | – | –
COc1ccc(C2CC(Nn3c(C)nc4ccc(Br)cc4c3=O)=NN2C(C)=O)cc1 (stereo not given) | – | – | 50%
CC(=O)N1N=C(Nn2c(C)nc3ccc(Br)cc3c2=O)CC1c1ccc(O)cc1 (stereo not given) | – | – | 50%
Cc1nc2ccc(Br)cc2c(=O)n1/C=C/c1ccc(F)c(F)c1 | – | 54% | –
COc1cc(C2CC(Nn3c(C)nc4ccc(Br)cc4c3=O)=NO2)ccc1O (stereo not given) | – | – | 50%
O=C(/C=C/c1ccccc1)NN1C(=O)CC1c1nc2ccc(Br)cc2c(=O)n1-c1cccc(Cl)c1 (stereo not given) | 10.28% | – | –
O=c1c2ccccc2nc(-c2ccccc2)n1/C=C/c1c(Cl)cccc1Cl | – | 54% | –
Cc1nc2ccccc2c(=O)n1NC(=O)/C=C/c1ccc(O)cc1 | – | – | 50%
Cc1nc2ccc(Br)cc2c(=O)n1/C=C/c1ccccc1F | – | 54% | –
O=c1c2ccccc2nc(-c2ccccc2)n1/C=C/c1ccc(C(F)(F)F)cc1 | – | 54% | –
Cc1nc2ccc(Br)cc2c(=O)n1NC(=O)/C=C/c1ccc(O)cc1 | – | – | 50%
CC(C)c1ccc(/C=C/C(=O)NN2C(=O)CC2c2nc3ccc(Br)cc3c(=O)n2-c2cccc(Cl)c2)cc1 (stereo not given) | 10.28% | – | –
O=c1c2cc(Br)ccc2nc(CBr)n1-c1cccc(Cl)c1 | 10.28% | – | –
